Laboratory results published in US20030109537A1, “Methods and materials for treating bone conditions” (priority 2001, published 2003).

Assays:
[1] = test system: rat model for parathyroid bone disease; experiment: Rat model for parathyroid bone disease: pulsatile vs continuous PTH, bone histomorphometry; format: in vivo; conditions: rats
[2] = test system: PTH-induced marrow fibrosis and osteoclast resorption; experiment: Bone histomorphometry in rats given trapidil, continuous PTH or both; format: in vivo, rat; conditions: continuous PTH, significant upon two-way ANOVA
Serum chemistry and PTH = format: in vivo, rat; conditions: rats
Method: Treatment protocol. Three month-old female Sprague-Dawley rats were divided into 4 groups. In group 1 (n=9), osmotic pumps that delivered vehicle alone at a rate of 1 μl/hr for 7 days were implanted in each rat. […] In groups 3 and 4 (n=8 and 10, respectively), osmotic pumps were implanted in each rat that delivered 40 μg/kg/day hPTH at a rate of 1 μl/hr for 7 days. […] Tetracycline (20 mg/kg, Sigma Chemical Co., St. Louis, Mo.) and calcein (20 mg/kg, Sigma) fluorochrome labels were injected at the base of the tail on day 0 (tetracycline) and day 6 (calcein). On day 8, all rats were anesthetized and blood was collected by cardiac puncture. The blood samples were used to determine serum chemistry and PTH levels. Following blood collection, the rats were sacrificed by cervical dislocation, and tibiae were surgically removed and fixed in 70% ethanol for bone histomorphometry.
Serum chemistry and PTH. Total serum calcium, phosphate, and magnesium levels were measured in rat blood samples by Central Clinical Laboratory Research at the Mayo Clinic using automated procedures. Serum PTH was measured using an immunoradiometric assay for rat PTH (Immunotopics International, LLC, San Clementa, Calif.) that has approximately 100% cross-reactivity to human PTH.
Serum and bone samples were collected after 7 days and analyzed.

[3] = test system: osteoblasts and peritrabecular fibroblasts; experiment: 3H-thymidine autoradiography; format: in vivo, rat; conditions: continuous PTH 1 week with continuous 3H-thymidine infusion, rats
Method: ^3H-thymidine autoradiography was performed to determine the role of cell proliferation in contributing to the increases in osteoblasts and fibroblasts following continuous administration of PTH. ^3H-thymidine was infused continuously for the entire 1-week duration of PTH treatment in order to label all proliferating cells. […] Thus, it seems that PTH-induced osteoblasts and fibroblasts originate by different cellular pathways.

[4] = test system: rat model for parathyroid bone disease; experiment: Rat model for parathyroid bone disease: pulsatile vs continuous PTH, bone histomorphometry; format: in vivo
Method: Induction of parathyroid bone disease. Three month-old female Sprague-Dawley rats (Harlan Sprague-Dawley, Inc., Indianapolis, Ind.) were randomly divided into 3 groups, with 5 rats per group. In group 1 (pulsatile or intermittent PTH), each rat received 80 μg/kg/day human PTH (1-34) (hPTH) in vehicle (150 mM NaCl, 1 mM HCl and 2% heat-inactivated rat serum) by subcutaneous (s.c.) injection once daily for 7 days. In group 2 (vehicle), an osmotic pump (Alza Corp., Mountainview, Calif.) that delivered vehicle alone at a rate of 1 μl/hr for 7 days was implanted in each rat. In group 3 (continuous PTH), an osmotic pump that delivered 40 μg/kg/day hPTH at a rate of 1 μl/hr for 7 days was implanted in each rat. On day 8, all rats were anesthetized with ketamine (50 mg/kg): xylazine HCl (5 mg/kg) and sacrificed by decapitation. Both tibiae were removed from each rat. Right tibiae were fixed by immersion in 70% ethanol then processed for bone histology to verify the appearance of peritrabecular fibrosis. Left tibiae were frozen in liquid N2 and stored at −80° C. until processed for RNA isolation.
Bone histomorphometry. Proximal metaphyses were dehydrated in a graded series of ethanol, then infiltrated and embedded in methymethacrylate (Fisher Scientific, Fair Lawn, N.J.). After embedding, 5 μm sections were cut using a microtome (Reichert-Jung Model 2065, Heidelberg, Germany), and the sections were mounted unstained. Dynamic histomorphometric cancellous bone measurements were made in the unstained sections using fluorescent microscopy to detect the injected tetracycline and calcein markers. After obtaining the cancellous bone measurements, consecutive sections were stained with toluidine blue for bone cell and peritrabecular fibrosis measurements using light microscopy. A standard sampling site of 2.8 mm was located in the secondary spongiosa of the metaphysis at 1.5 mm distal to the growth plate.
All histomorphometric measurements were made with an Osteomeasure image analysis system (OsteoMetrics, Atlanta, Ga.) coupled to a photomicroscope and personal computer. All parameters were calculated according to standardized nomenclature. See, for example, Parfitt et al., J. Bone Miner. Res., 2:595-610 (1987). Bone volume was defined as the percentage of tissue volume consisting of cancellous bone. Tetracycline and calcein labels were determined as the percentage of bone perimeter labeled with fluorochrome. Mineral apposition rate (MAR) was defined as the average width between tetracycline and calcein label divided by interlabel time of 6 days. Bone formation rate (BFR) was defined as the product of MAR and the calcein label perimeter, and was expressed per bone surface (BFR/BS), bone volume (BFR/BV), or tissue volume (BFR/TV). Osteoblast surface was defined as a palisade of large basophilic cuboidal cells directly lying on top of the osteoid, and was expressed as a percent of bone perimeter. Osteoclast surface was defined as the bone perimeter lined by multinucleated cells regardless of the presence of erosion. Fibrotic perimeter was defined as the bone perimeter lined by multilayers of fibroblasts.
A rat model of hyperparathyroidism (HPT) was developed as described in Example 1, and compared to intermittent PTH treatment. PTH results in major changes in bone metabolism in less than 1 week and these short-term changes accurately predict the long-terms effects of the hormone. To induce an anabolic course of PTH action, human recombinant PTH was administered s.c. (80 μg/kg/d). […] In contrast, no increase in osteoclast number was noted.
To mimic HPT, hPTH was infused continuously at the same dose rate (80 μg/kg/d) using a s.c. implanted osmotic pump. […] In addition, bone formation in rats treated continuously or intermittently with PTH had similar increases in bone formation after 1 week. Cancellous osteopenia was not observed. […]

[5] = continuous PTH 40 μg/kg/day osmotic pump 7 days
[6] = continuous PTH 40 μg/kg/day osmotic pump 7 days, vs untreated control
[7] = continuous PTH infusion 40 μg/kg/d
[8] = day 8, trapidil 40 mg/kg/day s.c. 7 days, hPTH 40 μg/kg/day continuous by osmotic pump 7 days, mean ± SEM
[9] = pulsatile PTH 80 μg/kg/day s.c. once daily 7 days, rats
[10] = pulsatile PTH 80 μg/kg/day s.c. once daily 7 days, rats, vs untreated control

human PTH (1-34)
time to increase in 3H-proline incorporation into bone matrix proteins ([1]; PTH s.c. 80 μg/kg/d): ≤ 24 h
time to increase in the number of fully mature osteoblasts ([1]; PTH s.c. 80 μg/kg/d): ≤ 3 days
time to upregulation of mRNA levels for bone matrix proteins (type I collagen, osteonectin, osteocalcin) ([1]; PTH s.c. 80 μg/kg/d): ≤ 16 h
Marrow fibrosis [1, 5]: Extensive^b
Osteoid surface [1, 5]: Extensive^b
Bone formation rate [1, 6]: ↑^a
Osteoblast perimeter [1, 6]: ↑^a
Osteoclast perimeter [1, 6]: ↑^b
mRNA levels for one matrix proteins [1, 6]: ↑^a
detrimental skeletal effects of continuous PTH [1, 7]: extensive peritrabecular fibrosis, osteomalacia, increased bone formation, and focal bone resorption
systemic side effects on reducing the dose rate [1, 7]: greatly reduced systemic side effects
systemic effects of continuous release ([1]; hPTH infused continuously 80 μg/kg/d, s.c. osmotic pump): severe hypercalcemia and weight loss
daily PTH pulse duration at which detrimental side effects were observed ([1]; programmed implantable osmotic pump, same quantity of PTH): ≥ 2 h
Bone formation rate ([1]; pulsatile PTH 80 μg/kg/day s.c. once daily 7 days, vs untreated control): ↑^a
effect on serum calcium levels ([1]; subcutaneous PTH 80 μg/kg/d): no effect
rate of mineral apposition [2]: slightly increased
serum chemistry effect of continuous PTH (Serum chemistry and PTH; continuous PTH 40 μg/kg/day 7 days): induced hypercalcemia and hyperparathyroidism
Serum Calcium (Serum chemistry and PTH; [8]): 11.65 ± 0.28^ab mg/dl
Serum Magnesium (Serum chemistry and PTH; [8]): 2.49 ± 0.04 mg/dL
Serum PTH (Serum chemistry and PTH; [8]): 98.27 ± 11.12^ab pg/ml
Serum Phosphorus (Serum chemistry and PTH; [8]): 7.95 ± 0.48 mg/dL
3H-thymidine labeling of PTH-induced osteoblasts [3]: unlabeled
3H-thymidine labeling of most of the peritrabecular fibroblasts induced by PTH [3]: labeled
osteoclast number ([4]; PTH s.c. 80 μg/kg/d, rats): no increase
Cancellous osteopenia ([4]; PTH-treated rats, 1 week): not observed
PTH pulse duration having the same effect as continuous PTH ([4]; programmed implantable osmotic pump, same quantity of PTH, rats): 6 h
Marrow fibrosis [4, 9]: Not observed^a
Osteoid surface [4, 9]: Minimal^a
Osteoblast perimeter [4, 10]: ↑^a
mRNA levels for one matrix proteins [4, 10]: ↑^a
